From US4515941A, “23-Demycinosyldesmycosin derivatives” (Toyo Jozo Kabushiki Kaisha, priority 1982, dated 1985)
Values after ≈ are worked out from the molar mass of the structure shown. Read-outs that look alike come from different tables or passages of the source.

Experiments:
Type in all cases: cell-based
[1] = test system: Staphylococcus aureus ATCC 6538P; experiment: MIC, Staphylococcus aureus ATCC 6538P; details: ATCC6538P, read-out: MIC
[2] = test system: Proteus vulgaris OX19; experiment: MIC, Proteus vulgaris OX19; details: Proteus vulgaris OX19; read-out: MIC
[3] = test system: Shigella sonnei E33; experiment: MIC, Shigella sonnei E33
[4] = test system: Pseudomonas aeruginosa IAM 1095; experiment: MIC, Pseudomonas aeruginosa IAM 1095; details: IAM1095; Pseudomonas aeruginosa IAM 1095; read-out: MIC
[5] = test system: Sarcina lutea ATCC 9341; experiment: MIC, Sarcina lutea ATCC 9341; details: Micrococcus luteus, ATCC9341
[6] = test system: Klebsiella pneumoniae ATCC 10031; experiment: MIC, Klebsiella pneumoniae ATCC 10031; details: ATCC10031; Klebsiella pneumoniae ATCC 10031; read-out: MIC
[7] = test system: Salmonella typhosa H901; experiment: MIC, Salmonella typhosa H901; details: Salmonella enterica, TYPHOSA
[8] = test system: Staphylococcus aureus MS353 A0; experiment: MIC, Staphylococcus aureus MS353 A0 (macrolide resistant); details: MS353A0, macrolide resistant bacteria A group
Source text: (§1) *macrolide resistant bacteria A group (clinical isolates of erythromycin,
(§2) oleandomycin and 16membered macrolide antibiotic resistant strains.)

[9] = test system: Streptococcus faecalis 1501; experiment: MIC, Streptococcus faecalis 1501; details: Enterococcus faecalis; Streptococcus faecalis 1501; read-out: MIC
[10] = test system: Staphylococcus aureus MS353; experiment: MIC, Staphylococcus aureus MS353; details: Staphylococcus aureus MS353; read-out: MIC
[11] = test system: Streptococcus pyogenes 1022; experiment: MIC, Streptococcus pyogenes 1022 (macrolide resistant); details: macrolide resistant bacteria A group
Source text: as §1, §2

[12] = test system: Streptococcus pyogenes N.Y.5; experiment: MIC, Streptococcus pyogenes N.Y.5; details: read-out: MIC
[13] = test system: Streptococcus agalactiae 1020; experiment: MIC, Streptococcus agalactiae 1020; details: Streptococcus agalactiae 1020; read-out: MIC
[14] = test system: Bacillus subtilis ATC 6633; experiment: MIC, Bacillus subtilis ATC 6633; details: ATC6633; Bacillus subtilis ATC 6633; read-out: MIC
[15] = test system: Escherichia coli NIHJ-JC2; experiment: MIC, Escherichia coli NIHJ-JC2; details: NIHJJC2
[16] = test system: Staphylococcus epidermis sp-al-1; experiment: MIC, Staphylococcus epidermis sp-al-1; details: SPAL1; Staphylococcus epidermis sp-al-1; read-out: MIC
[17] = test system: Staphylococcus aureus MS353 C36; experiment: MIC, Staphylococcus aureus MS353 C36; details: MS353C36
[18] = test system: Shigella flexineri type 3a; experiment: MIC, Shigella flexineri type 3a; details: TYPE3A
[19] = test system: Salmonella enteritidis Gaertner; experiment: MIC, Salmonella enteritidis Gaertner; details: Salmonella enterica; Salmonella enteritidis Gaertner; read-out: MIC
[20] = test system: Staphylococcus aureus 0127; experiment: MIC, Staphylococcus aureus 0127 (macrolide resistant); details: Staphylococcus aureus 0127; macrolide resistant bacteria A group; read-out: MIC
Source text: as §1, §2

[21] = test system: Staphylococcus aureus 0119; experiment: MIC, Staphylococcus aureus 0119 (macrolide resistant); details: macrolide resistant bacteria A group
Source text: as §1, §2

[22] = test system: Escherichia coli B; experiment: MIC, Escherichia coli B
[23] = test system: Corynebacterium diptheriae P.Y.8; experiment: MIC, Corynebacterium diptheriae P.Y.8; details: Corynebacterium diptheriae P.Y.8; read-out: MIC
[24] = test system: Micrococcus flavus ATCC 10240; experiment: MIC, Micrococcus flavus ATCC 10240; details: ATCC10240; Micrococcus flavus ATCC 10240; read-out: MIC
[25] = test system: Serratia marcescens; experiment: MIC, Serratia marcescens; details: read-out: MIC
[26] = Streptococcus pyogenes 1022, read-out: MIC
[27] = Streptococcus pyogenes, 1022, Streptococcus pyogenes 1022

SMILES	MIC [1]	MIC [2]	MIC [3]	MIC [4]	MIC [5]	MIC [6]	MIC [7]	MIC [8]	MIC [9]	MIC [10]	MIC [11, 26]	MIC [12]	MIC [13]	MIC [14]	MIC [15]	MIC [16]	MIC [17]	MIC [18]	MIC [19]	MIC [23]	further results
CCC1OC(=O)CC(O)C(C)C(OC2OC(C)C(O)C(N(C)C)C2O)C(CC=O)CC(C)C(=O)C=CC(C)=CC1CSC(C)c1ccccc1 (stereo not drawn) [23-(1-phenylethyl)thio-23-demycinosyl-23-deoxydesmycosin]	0.2 µg/mL (≈ 0.279 µM)	12.5 µg/mL (≈ 17.4 µM)	50 µg/mL (≈ 69.6 µM)	> 100 µg/mL	0.05 µg/mL (≈ 0.0696 µM)	3.1 µg/mL (≈ 4.32 µM)	100 µg/mL (≈ 139 µM)	25 µg/mL (≈ 34.8 µM)	0.2 µg/mL (≈ 0.279 µM)	0.2 µg/mL (≈ 0.279 µM)	25 µg/mL (≈ 34.8 µM)	≤ 0.05 µg/mL	0.1 µg/mL (≈ 0.139 µM)	0.2 µg/mL (≈ 0.279 µM)	50 µg/mL (≈ 69.6 µM)	≤ 0.05 µg/mL	–	–	–	–	–
CCc1ccc(OCC2C=C(C)C=CC(=O)C(C)CC(CC=O)C(OC3OC(C)C(O)C(N(C)C)C3O)C(C)C(O)CC(=O)OC2CC)cc1 (stereo not drawn)	0.4 µg/mL (≈ 0.57 µM)	100 µg/mL (≈ 142 µM)	> 100 µg/mL	> 100 µg/mL	≤ 0.05 µg/mL	6.3 µg/mL (≈ 8.98 µM)	> 100 µg/mL	25 µg/mL (≈ 35.6 µM)	0.4 µg/mL (≈ 0.57 µM)	0.4 µg/mL (≈ 0.57 µM)	12.5 µg/mL (≈ 17.8 µM)	0.1 µg/mL (≈ 0.142 µM)	0.1 µg/mL (≈ 0.142 µM)	0.4 µg/mL (≈ 0.57 µM)	> 100 µg/mL	0.2 µg/mL (≈ 0.285 µM)	0.4 µg/mL (≈ 0.57 µM)	> 100 µg/mL	> 100 µg/mL	≤ 0.05 µg/mL	MIC [20]: 25 µg/mL (≈ 35.6 µM); MIC [21]: 25 µg/mL (≈ 35.6 µM); MIC [22]: > 100 µg/mL; MIC [24]: ≤ 0.05 µg/mL; MIC [25]: > 100 µg/mL
CCC1OC(=O)CC(O)C(C)C(OC2OC(C)C(O)C(N(C)C)C2O)C(CC=O)CC(C)C(=O)C=CC(C)=CC1COc1ccc(Br)cc1 (stereo not drawn)	0.1 µg/mL (≈ 0.133 µM)	25 µg/mL (≈ 33.2 µM)	100 µg/mL (≈ 133 µM)	> 100 µg/mL	≤ 0.05 µg/mL	3.1 µg/mL (≈ 4.12 µM)	> 100 µg/mL	25 µg/mL (≈ 33.2 µM)	0.2 µg/mL (≈ 0.266 µM)	0.2 µg/mL (≈ 0.266 µM)	–	≤ 0.05 µg/mL	≤ 0.05 µg/mL	0.2 µg/mL (≈ 0.266 µM)	100 µg/mL (≈ 133 µM)	0.1 µg/mL (≈ 0.133 µM)	0.2 µg/mL (≈ 0.266 µM)	12.5 µg/mL (≈ 16.6 µM)	> 100 µg/mL	≤ 0.05 µg/mL	MIC [20]: 25 µg/mL (≈ 33.2 µM); MIC [21]: 25 µg/mL (≈ 33.2 µM); MIC [22]: 25 µg/mL (≈ 33.2 µM); MIC [11, 27]: 12.5 µg/mL (≈ 16.6 µM); MIC [24]: ≤ 0.05 µg/mL; MIC [25]: 50 µg/mL (≈ 66.4 µM)
CCC1OC(=O)CC(O)C(C)C(OC2OC(C)C(O)C(N(C)C)C2O)C(CC=O)CC(C)C(=O)C=CC(C)=CC1CSc1ccccc1 (stereo not drawn) [SC6 H5]	0.1 µg/mL (≈ 0.145 µM)	12.5 µg/mL (≈ 18.1 µM)	50 µg/mL (≈ 72.5 µM)	100 µg/mL (≈ 145 µM)	≤ 0.05 µg/mL	1.6 µg/mL (≈ 2.32 µM)	50 µg/mL (≈ 72.5 µM)	25 µg/mL (≈ 36.2 µM)	≤ 0.05 µg/mL	0.1 µg/mL (≈ 0.145 µM)	25 µg/mL (≈ 36.2 µM)	≤ 0.05 µg/mL	≤ 0.05 µg/mL	0.1 µg/mL (≈ 0.145 µM)	50 µg/mL (≈ 72.5 µM)	≤ 0.05 µg/mL	–	–	–	≤ 0.05 µg/mL	–
CCC1OC(=O)CC(O)C(C)C(OC2OC(C)C(O)C(N(C)C)C2O)C(CC=O)CC(C)C(=O)C=CC(C)=CC1CSCCc1ccccc1 (stereo not drawn) [S(CH2)2 C6 H5, 23-(2-phenylethyl)thio-23-demycinosyl-23-deoxydesmycosin]	0.1 µg/mL (≈ 0.139 µM)	12.5 µg/mL (≈ 17.4 µM)	25 µg/mL (≈ 34.8 µM)	> 100 µg/mL	≤ 0.05 µg/mL	3.1 µg/mL (≈ 4.32 µM)	> 100 µg/mL	50 µg/mL (≈ 69.6 µM)	0.1 µg/mL (≈ 0.139 µM)	0.1 µg/mL (≈ 0.139 µM)	–	≤ 0.05 µg/mL	≤ 0.05 µg/mL	0.1 µg/mL (≈ 0.139 µM)	50 µg/mL (≈ 69.6 µM)	≤ 0.05 µg/mL	–	–	–	–	MIC [11, 27]: 25 µg/mL (≈ 34.8 µM)
